Assay results taken from ChEMBL document CHEMBL1201862, “PubChem BioAssay data set” (2004).
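A five-concentration, 48-hour dose response in 96-well plates underlies each endpoint, interpolated linearly between surrounding concentrations. GI50 is the concentration that inhibits growth by half.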 Active and inactive are the calls of the source. No stated cut-off is given here; in the data, active = GI50 up to about 1.1 µM and inactive = higher.

Columns and labels:
Experiment in all cases: NCI-60 cell line screen, 48 h
[1] = tested on: BT-549
[2] = tested on: OVCAR-3
[3] = tested on: A549
[4] = tested on: UACC-257
[5] = tested on: U-251
[6] = tested on: SF-539
[7] = tested on: EKVX
[8] = tested on: SK-MEL-2
[9] = tested on: SF-295
[10] = tested on: CAKI-1
[11] = tested on: HOP-92
[12] = tested on: SW-620
[13] = tested on: OVCAR-4
[14] = tested on: COLO 205
[15] = tested on: A498
[16] = tested on: ACHN
[17] = tested on: MDA-N
[18] = tested on: MDA-MB-231
[19] = tested on: CCRF-CEM

Compound	GI50 [1]	GI50 [2]	GI50 [3]	GI50 [4]	GI50 [5]	GI50 [6]	GI50 [7]	GI50 [8]	GI50 [9]	GI50 [10]	GI50 [11]	GI50 [12]	GI50 [13]	GI50 [14]	GI50 [15]	GI50 [16]	GI50 [17]	GI50 [18]	GI50 [19]
Cc1nnc2ccccc2c1O	> 100 µM (inactive)	> 100 µM (inactive)	> 100 µM (inactive)	> 100 µM (inactive)	> 100 µM (inactive)	> 100 µM (inactive)	> 100 µM (inactive)	> 100 µM (inactive)	> 100 µM (inactive)	> 100 µM (inactive)	> 100 µM (inactive)	> 100 µM (inactive)	> 100 µM (inactive)	> 100 µM (inactive)	> 100 µM (inactive)	> 100 µM (inactive)	> 100 µM (inactive)	> 100 µM (inactive)	–
N=C(N)N/N=C/c1c(-c2ccc([N+](=O)[O-])cc2)nc2sc(Cl)cn12	1.8 µM (inactive)	1.27 µM (inactive)	0.593 µM (active)	–	0.418 µM (active)	1.89 µM (inactive)	0.611 µM (active)	0.513 µM (active)	1.17 µM (inactive)	1.67 µM (inactive)	1.73 µM (inactive)	0.226 µM (active)	0.441 µM (active)	0.658 µM (active)	0.873 µM (active)	1.27 µM (inactive)	0.54 µM (active)	0.262 µM (active)	0.277 µM (active)
Cc1c(C)c(S(=O)(=O)N(CCCCCCN)OCCCN)c(C)c2c1OC(C)(C)CC2	13.3 µM (inactive)	2.44 µM (inactive)	4.94 µM (inactive)	11 µM (inactive)	4.46 µM (inactive)	> 24.1 µM (inactive)	6.65 µM (inactive)	2.42 µM (inactive)	7.5 µM (inactive)	15.8 µM (inactive)	4.16 µM (inactive)	7.45 µM (inactive)	2.49 µM (inactive)	4.29 µM (inactive)	16.1 µM (inactive)	8.99 µM (inactive)	2.81 µM (inactive)	3.56 µM (inactive)	2.31 µM (inactive)
O=C1C(Cl)C(c2cc3cc(Br)ccc3nc2Cl)N1c1ccc(Cl)cc1 (configuration not stated)	4.4 µM (inactive)	5.41 µM (inactive)	10.4 µM (inactive)	4.81 µM (inactive)	–	4.33 µM (inactive)	4.16 µM (inactive)	4.37 µM (inactive)	9.68 µM (inactive)	4.43 µM (inactive)	3.43 µM (inactive)	7.35 µM (inactive)	4.46 µM (inactive)	4.89 µM (inactive)	16.5 µM (inactive)	4.5 µM (inactive)	5.53 µM (inactive)	3.9 µM (inactive)	3.08 µM (inactive)
O=C1c2ccccc2/C=C\C(c2ccccc2)=N/N1c1ccccc1Cl	10.9 µM (inactive)	27.5 µM (inactive)	17.1 µM (inactive)	26.8 µM (inactive)	21.7 µM (inactive)	35.7 µM (inactive)	22.5 µM (inactive)	60 µM (inactive)	26.1 µM (inactive)	16.9 µM (inactive)	26.5 µM (inactive)	20.1 µM (inactive)	22.4 µM (inactive)	> 10 µM (inactive)	26.5 µM (inactive)	26.4 µM (inactive)	3.44 µM (inactive)	11.9 µM (inactive)	34.5 µM (inactive)
CN(C)CC1CN(C(=O)Nc2ccccc2)C(=N)O1 (configuration not stated)	> 100 µM (inactive)	> 100 µM (inactive)	> 100 µM (inactive)	> 100 µM (inactive)	> 100 µM (inactive)	> 100 µM (inactive)	> 100 µM (inactive)	> 100 µM (inactive)	> 100 µM (inactive)	> 100 µM (inactive)	> 100 µM (inactive)	> 100 µM (inactive)	> 100 µM (inactive)	> 100 µM (inactive)	> 100 µM (inactive)	> 100 µM (inactive)	83.2 µM (inactive)	> 100 µM (inactive)	> 100 µM (inactive)
COc1ccc(OC)c(NC(=O)C(=O)Nn2c(S)nc3ccccc3c2=O)c1	> 100 µM (inactive)	> 100 µM (inactive)	> 100 µM (inactive)	> 100 µM (inactive)	> 100 µM (inactive)	> 100 µM (inactive)	82.2 µM (inactive)	> 100 µM (inactive)	> 100 µM (inactive)	> 100 µM (inactive)	> 100 µM (inactive)	> 100 µM (inactive)	> 100 µM (inactive)	–	> 100 µM (inactive)	> 100 µM (inactive)	> 100 µM (inactive)	> 100 µM (inactive)	> 100 µM (inactive)
Cc1nc2c(cc1OCc1ccccc1)C(=O)C1=C(C2=O)C2OC(=O)CC2OC1(C)C (configuration not stated)	0.564 µM (active)	–	6.44 µM (inactive)	0.671 µM (active)	0.859 µM (active)	0.728 µM (active)	1.55 µM (inactive)	1.46 µM (inactive)	–	0.468 µM (active)	0.375 µM (active)	0.322 µM (active)	0.498 µM (active)	0.326 µM (active)	1.6 µM (inactive)	0.619 µM (active)	0.404 µM (active)	0.43 µM (active)	0.17 µM (active)
CCOC(=O)c1nc2ccc(C(F)(F)F)cc2nc1NCc1ccc(OC)cc1	60.4 µM (inactive)	71.8 µM (inactive)	49.4 µM (inactive)	74 µM (inactive)	> 100 µM (inactive)	> 100 µM (inactive)	> 100 µM (inactive)	97.9 µM (inactive)	> 100 µM (inactive)	> 100 µM (inactive)	47.5 µM (inactive)	> 100 µM (inactive)	63.7 µM (inactive)	93.8 µM (inactive)	58.6 µM (inactive)	92.5 µM (inactive)	> 100 µM (inactive)	> 100 µM (inactive)	> 100 µM (inactive)
COc1ccc(P2(=S)OCCOP(=S)(c3ccc(OC)cc3)S2)cc1 (configuration not stated)	13.9 µM (inactive)	2.52 µM (inactive)	3.01 µM (inactive)	11.2 µM (inactive)	4.03 µM (inactive)	2.76 µM (inactive)	> 21.8 µM (inactive)	3.51 µM (inactive)	2.53 µM (inactive)	2.31 µM (inactive)	10.4 µM (inactive)	4.54 µM (inactive)	12.3 µM (inactive)	3.56 µM (inactive)	2.45 µM (inactive)	5.98 µM (inactive)	2.29 µM (inactive)	3.13 µM (inactive)	2.97 µM (inactive)
CCN(CC)CCNC(=O)c1cc2cc(NC(=O)c3cc4cc(N)ccc4[nH]3)ccc2[nH]1	28.1 µM (inactive)	–	41 µM (inactive)	51.1 µM (inactive)	25.6 µM (inactive)	31.1 µM (inactive)	97.1 µM (inactive)	29.1 µM (inactive)	> 100 µM (inactive)	86.5 µM (inactive)	24 µM (inactive)	33.3 µM (inactive)	8.05 µM (inactive)	12.9 µM (inactive)	> 100 µM (inactive)	> 100 µM (inactive)	33.9 µM (inactive)	25.4 µM (inactive)	9.53 µM (inactive)
O=C(O)C1=C(C(=O)O)N(c2ccncc2)C(c2ccco2)=CC1c1ccccc1[N+](=O)[O-] (configuration not stated)	13.2 µM (inactive)	8.17 µM (inactive)	16.2 µM (inactive)	2.22 µM (inactive)	4.92 µM (inactive)	2.11 µM (inactive)	11.2 µM (inactive)	17.8 µM (inactive)	12.2 µM (inactive)	15.5 µM (inactive)	7.06 µM (inactive)	8.85 µM (inactive)	13 µM (inactive)	14.2 µM (inactive)	11.8 µM (inactive)	1.72 µM (inactive)	5.56 µM (inactive)	14.2 µM (inactive)	2.69 µM (inactive)
CC(O)(C(=O)N(O)c1ccc(Cl)cc1)c1ccc(Cl)cc1 (configuration not stated)	21.6 µM (inactive)	25.2 µM (inactive)	26.4 µM (inactive)	24.8 µM (inactive)	23.6 µM (inactive)	32.5 µM (inactive)	39.3 µM (inactive)	22.2 µM (inactive)	27.3 µM (inactive)	23.9 µM (inactive)	20.3 µM (inactive)	31.3 µM (inactive)	37.9 µM (inactive)	18.1 µM (inactive)	25.5 µM (inactive)	18.7 µM (inactive)	41.1 µM (inactive)	22.8 µM (inactive)	6.08 µM (inactive)
O=P(O)(O)OP(=O)(O)O	> 100 µM (inactive)	> 100 µM (inactive)	> 100 µM (inactive)	> 100 µM (inactive)	> 100 µM (inactive)	> 100 µM (inactive)	> 100 µM (inactive)	> 100 µM (inactive)	–	> 100 µM (inactive)	> 100 µM (inactive)	> 100 µM (inactive)	> 100 µM (inactive)	> 100 µM (inactive)	> 100 µM (inactive)	> 100 µM (inactive)	> 100 µM (inactive)	> 100 µM (inactive)	> 100 µM (inactive)
CC(=O)O[C@H]1C[C@]2(O)[C@@H]3CC[C@@H]4C[C@@H](O)CC[C@]4(C)[C@H]3CC[C@]2(C)[C@H]1C1=CC(=O)OC1	0.0284 µM (active)	0.0389 µM (active)	< 0.0144 µM (active)	0.18 µM (active)	0.128 µM (active)	0.0299 µM (active)	0.0458 µM (active)	0.218 µM (active)	0.0391 µM (active)	0.034 µM (active)	0.192 µM (active)	0.125 µM (active)	0.0362 µM (active)	0.236 µM (active)	0.0977 µM (active)	0.031 µM (active)	0.0867 µM (active)	0.404 µM (active)	0.0375 µM (active)
